Source: patent US20230127944A1, “BROAD-SPECTRUM CARBAPENEMS” (priority 2019, published 2023)
Converted amounts (≈) assume the structure as drawn. Where two headings read alike, the source gives them in different places.

How the values were obtained:
Format in all cases: cell-based
[1] = system: P. aeruginosa Paeβ-17; test: broth microdilution MIC assay, P. aeruginosa Paeβ-17; conditions: Pseudomonas aeruginosa, read-out: MIC, P. aeruginosa Paeβ-17
Summary of the method: (§1)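 CLSI broth microdilution in cation-adjusted Mueller-Hinton broth: colonies from Mueller Hinton II agar grown 3-5 h at 37° C, inoculum set by OD600 to 5×10^5 CFU/mL final. Compounds in 2-fold serial dilutions; plates incubated 16-20 hours at 37° C. MIC read visually as lowest concentration without growth.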

[2] = system: P. aeruginosa ΔmexAB-OprM (an efflux pump knockout); test: broth microdilution MIC assay, P. aeruginosa ΔmexAB-OprM; conditions: Pseudomonas aeruginosa, read-out: MIC, P. aeruginosa ΔmexAB-OprM
Summary of the method: as §1

[3] = system: P. aeruginosa ATCC 27853 (wild-type/QC strain); test: broth microdilution MIC assay, P. aeruginosa 27853
Summary of the method: as §1

[4] = system: P. aeruginosa 35151 (hyper-permeable strain); test: broth microdilution MIC assay, P. aeruginosa 35151; conditions: Pseudomonas aeruginosa, read-out: MIC, P. aeruginosa 35151
Summary of the method: as §1

[5] = system: S. aureus USA 300; test: broth microdilution MIC assay, S. aureus USA300; conditions: Staphylococcus aureus
Summary of the method: as §1

[6] = system: S. aureus ATCC 33591 (methicillin-resistant); test: broth microdilution MIC assay, S. aureus 33591; conditions: Staphylococcus aureus
Summary of the method: as §1

[7] = system: S. aureus USA 600; test: broth microdilution MIC assay, S. aureus USA600; conditions: Staphylococcus aureus
Summary of the method: as §1

[8] = system: E. coli ATCC 25922 (wild-type/QC strain); test: broth microdilution MIC assay, E. coli 25922
Summary of the method: as §1

[9] = Pseudomonas aeruginosa, ATCC27853; read-out: MIC, P. aeruginosa 27853
[10] = S. aureus USA300 (MRSA), read-out: MIC, S. aureus USA300
[11] = ATCC33591, S. aureus 33591, methicillin-resistant, read-out: MIC, S. aureus 33591
[12] = S. aureus USA600 (MRSA), read-out: MIC, S. aureus USA600
[13] = Escherichia coli, ATCC25922; read-out: MIC, E. coli 25922

Row | SMILES | MIC [1] [mg/L] | MIC [2] [mg/L] | MIC ([3]; Pseudomonas aeruginosa, ATCC27853, read-out: MIC, P. aeruginosa 27853) [mg/L] | MIC [4] [mg/L] | MIC ([5]; MRSA / USA300, read-out: MIC, S. aureus USA300) [mg/L] | MIC ([6]; ATCC33591, read-out: MIC, S. aureus 33591) [mg/L] | MIC ([7]; MRSA / USA600, read-out: MIC, S. aureus USA600) [mg/L] | MIC ([8]; Escherichia coli, ATCC25922, read-out: MIC, E. coli 25922) [mg/L] | MIC [3, 9] [mg/L] | MIC [5, 10] [mg/L] | MIC [6, 11] [mg/L] | MIC [7, 12] [mg/L] | MIC [8, 13] [mg/L]
1 | C[C@@H](O)[C@H]1C(=O)N2C(C(=O)O)=C(S[C@H]3C[C@@H](N4CCC(N)CC4)C3)[C@H](C)[C@H]12 [Example 54] | 8 to 32 (≈ 20.2 to 80.9 µM) | 1 to 4 (≈ 2.53 to 10.1 µM) | 8 to 32 (≈ 20.2 to 80.9 µM) | < 1 | 8 to 32 (≈ 20.2 to 80.9 µM) | 8 to 32 (≈ 20.2 to 80.9 µM) | 1 to 4 (≈ 2.53 to 10.1 µM) | < 1 |  |  |  |  | 
2 | C[C@@H](O)[C@H]1C(=O)N2C(C(=O)O)=C(S[C@H]3C[C@H](NC4CCN(C(=N)N)CC4)C3)[C@H](C)[C@H]12 [Example 48, (4R,5S,6S)-3-(((1R,3R)-3-((1-carbamimidoylpiperidin-4-yl)amino)cyclobutyl)thio)-6-((R)-1-hydroxyethyl)-4-methyl-7-oxo-1-azabicyclo[3.2.0]hept-2-ene-2-carboxylic acid] | 8 to 32 (≈ 18.3 to 73.1 µM) | 1 to 4 (≈ 2.29 to 9.14 µM) |  | < 1 |  |  |  |  | 8 to 32 (≈ 18.3 to 73.1 µM) | 1 to 4 (≈ 2.29 to 9.14 µM) | 8 to 32 (≈ 18.3 to 73.1 µM) | 1 to 4 (≈ 2.29 to 9.14 µM) | < 1
3 | C[C@@H](O)[C@H]1C(=O)N2C(C(=O)O)=C(S[C@H]3C[C@@H](NC4CCNCC4)C3)[C@H](C)[C@H]12 [Example 44, (4R,5S,6S)-6-((R)-1-hydroxyethyl)-4-methyl-7-oxo-3-(((1S,3S)-3-(piperidin-4-ylamino)cyclobutyl)thio)-1-azabicyclo[3.2.0]hept-2-ene-2-carboxylic acid] | 8 to 32 (≈ 20.2 to 80.9 µM) | 1 to 4 (≈ 2.53 to 10.1 µM) |  | < 1 |  |  |  |  | 8 to 32 (≈ 20.2 to 80.9 µM) | 1 to 4 (≈ 2.53 to 10.1 µM) | 8 to 32 (≈ 20.2 to 80.9 µM) | 1 to 4 (≈ 2.53 to 10.1 µM) | < 1
4 | C[C@@H](O)[C@H]1C(=O)N2C(C(=O)O)=C(S[C@H]3C[C@H](N[C@@H]4CC[C@@H](N)C4)C3)[C@H](C)[C@H]12 [Example 71, (4R,5S,6S)-3-(((1R,3R)-3-(((1R,3R)-3-aminocyclopentyl)amino)cyclobutyl)thio)-6-((R)-1-hydroxyethyl)-4-methyl-7-oxo-1-azabicyclo[3.2.0]hept-2-ene-2-carboxylic acid] | 8 to 32 (≈ 20.2 to 80.9 µM) | 1 to 4 (≈ 2.53 to 10.1 µM) |  | < 1 |  |  |  |  | 8 to 32 (≈ 20.2 to 80.9 µM) | 1 to 4 (≈ 2.53 to 10.1 µM) | 8 to 32 (≈ 20.2 to 80.9 µM) | 1 to 4 (≈ 2.53 to 10.1 µM) | < 1
5 | C[C@@H](O)[C@H]1C(=O)N2C(C(=O)O)=C(SC3CN([C@H]4CC[C@@H](NC(=N)N)C4)C3)[C@H](C)[C@H]12 [Example 9, (4R,5S,6S)-3-((1-((1S,3R)-3-guanidinocyclopentyl)azetidin-3-yl)thio)-6-((R)-1-hydroxyethyl)-4-methyl-7-oxo-1-azabicyclo[3.2.0]hept-2-ene-2-carboxylic acid] | 8 to 32 (≈ 18.9 to 75.6 µM) | < 1 |  | < 1 |  |  |  |  | 1 to 4 (≈ 2.36 to 9.44 µM) | < 1 | 1 to 4 (≈ 2.36 to 9.44 µM) | < 1 | < 1
6 | C[C@@H](O)[C@H]1C(=O)N2C(C(=O)O)=C(S[C@@H]3CCN(C4CCN(C)CC4)C3)[C@H](C)[C@H]12 [Example 29, (4R,5S,6S)-6-((R)-1-hydroxyethyl)-4-methyl-3-(((R)-1-(1-methylpiperidin-4-yl)pyrrolidin-3-yl)thio)-7-oxo-1-azabicyclo[3.2.0]hept-2-ene-2-carboxylic acid] | 8 to 32 (≈ 19.5 to 78.1 µM) | 1 to 4 (≈ 2.44 to 9.77 µM) |  | < 1 |  |  |  |  | 8 to 32 (≈ 19.5 to 78.1 µM) | 1 to 4 (≈ 2.44 to 9.77 µM) | 8 to 32 (≈ 19.5 to 78.1 µM) | 1 to 4 (≈ 2.44 to 9.77 µM) | < 1
7 | C[C@@H](O)[C@H]1C(=O)N2C(C(=O)O)=C(SC3CN(C4CCN(C)CC4)C3)[C@H](C)[C@H]12 [Example 42, (4R,5S,6S)-6-((R)-1-hydroxyethyl)-4-methyl-3-((1-(1-methylpiperidin-4-yl)azetidin-3-yl)thio)-7-oxo-1-azabicyclo[3.2.0]hept-2-ene-2-carboxylic acid] | 8 to 32 (≈ 20.2 to 80.9 µM) | 8 to 32 (≈ 20.2 to 80.9 µM) |  | < 1 |  |  |  |  | 8 to 32 (≈ 20.2 to 80.9 µM) | 1 to 4 (≈ 2.53 to 10.1 µM) | 8 to 32 (≈ 20.2 to 80.9 µM) | 1 to 4 (≈ 2.53 to 10.1 µM) | < 1
8 | C[C@@H](O)[C@H]1C(=O)N2C(C(=O)O)=C(S[C@@H]3CCN([C@H]4CC[C@@H](NC(=N)N)CC4)C3)[C@H](C)[C@H]12 [Example 34, (4R,5S,6S)-3-(((R)-1-((1S,4S)-4-guanidinocyclohexyl)pyrrolidin-3-yl)thio)-6-((R)-1-hydroxyethyl)-4-methyl-7-oxo-1-azabicyclo[3.2.0]hept-2-ene-2-carboxylic acid] | 8 to 32 (≈ 17.7 to 70.9 µM) | 1 to 4 (≈ 2.21 to 8.86 µM) |  | < 1 |  |  |  |  | 1 to 4 (≈ 2.21 to 8.86 µM) | < 1 | 1 to 4 (≈ 2.21 to 8.86 µM) | 1 to 4 (≈ 2.21 to 8.86 µM) | < 1
9 | C[C@@H](O)[C@H]1C(=O)N2C(C(=O)O)=C(S[C@@H]3CC[C@@H](NC4CCN(C(=N)N)CC4)C3)[C@H](C)[C@H]12 [Example 55, (4R,5S,6S)-3-(((1R,3R)-3-((1-carbamimidoylpiperidin-4-yl)amino)cyclopentyl)thio)-6-((R)-1-hydroxyethyl)-4-methyl-7-oxo-1-azabicyclo[3.2.0]hept-2-ene-2-carboxylic acid] | 8 to 32 (≈ 17.7 to 70.9 µM) | 1 to 4 (≈ 2.21 to 8.86 µM) |  | < 1 |  |  |  |  | 8 to 32 (≈ 17.7 to 70.9 µM) | 1 to 4 (≈ 2.21 to 8.86 µM) | 1 to 4 (≈ 2.21 to 8.86 µM) | 1 to 4 (≈ 2.21 to 8.86 µM) | < 1
10 | C[C@@H](O)[C@H]1C(=O)N2C(C(=O)O)=C(S[C@H]3C[C@@H](N[C@H]4CC[C@@H](N)CC4)C3)[C@H](C)[C@H]12 [Example 62, (4R,5S,6S)-3-(((1S,3S)-3-(((1S,4R)-4-aminocyclohexyl)amino)cyclobutyl)thio)-6-((R)-1-hydroxyethyl)-4-methyl-7-oxo-1-azabicyclo[3.2.0]hept-2-ene-2-carboxylic acid] | 8 to 32 (≈ 19.5 to 78.1 µM) | 1 to 4 (≈ 2.44 to 9.77 µM) |  | < 1 |  |  |  |  | 1 to 4 (≈ 2.44 to 9.77 µM) | 1 to 4 (≈ 2.44 to 9.77 µM) | 1 to 4 (≈ 2.44 to 9.77 µM) | 1 to 4 (≈ 2.44 to 9.77 µM) | < 1
11 | C[C@@H](O)[C@H]1C(=O)N2C(C(=O)O)=C(S[C@H]3C[C@H](N[C@H]4CC[C@H](N)CC4)C3)[C@H](C)[C@H]12 [Example 59, (4R,5S,6S)-3-(((1R,3R)-3-(((1R,4R)-4-aminocyclohexyl)amino)cyclobutyl)thio)-6-((R)-1-hydroxyethyl)-4-methyl-7-oxo-1-azabicyclo[3.2.0]hept-2-ene-2-carboxylic acid] | 8 to 32 (≈ 19.5 to 78.1 µM) | 1 to 4 (≈ 2.44 to 9.77 µM) |  | < 1 |  |  |  |  | 8 to 32 (≈ 19.5 to 78.1 µM) | 1 to 4 (≈ 2.44 to 9.77 µM) | 1 to 4 (≈ 2.44 to 9.77 µM) | 8 to 32 (≈ 19.5 to 78.1 µM) | < 1
12 | C[C@@H](O)[C@H]1C(=O)N2C(C(=O)O)=C(S[C@@H]3CCN([C@H]4CC[C@H](CNC(=N)N)CC4)C3)[C@H](C)[C@H]12 [Example 64, (4R,5S,6S)-3-(((R)-1-((1R,4R)-4-(guanidinomethyl)cyclohexyl)pyrrolidin-3-yl)thio)-6-((R)-1-hydroxyethyl)-4-methyl-7-oxo-1-azabicyclo[3.2.0]hept-2-ene-2-carboxylic acid] | 8 to 32 (≈ 17.2 to 68.7 µM) | 1 to 4 (≈ 2.15 to 8.59 µM) |  | < 1 |  |  |  |  | 1 to 4 (≈ 2.15 to 8.59 µM) | 1 to 4 (≈ 2.15 to 8.59 µM) | 1 to 4 (≈ 2.15 to 8.59 µM) | 1 to 4 (≈ 2.15 to 8.59 µM) | < 1
